Experimental data as given in ChEMBL document CHEMBL4665665, “4-Aryl Pyrrolidines as Novel Orally Efficacious Antimalarial Agents. Part 2: 2-Aryl-N-(4-arylpyrrolidin-3-yl)acetamides” (ACS Med Chem Lett, 2019).
Activity calls are given as the source filed them. The calls are words filed in the database; no cut-off is given here.

Columns and labels:
Plasmodium chabaudi [1] = experiment: Antimalarial activity against Plasmodium chabaudi ASS infected po dosed NIH mouse assessed as inhibition of parasitemia administered oce daily for 4 days starting from 4 hrs post parasite-inoculation and measured at 24 hrs post-last treatment by Peter's 4-day suppressive test; assay type: functional; conditions: 96 h
[2] = Plasma concentration in NIH mouse infected with Plasmodium chabaudi ASS at 30 mg/kg, po qd for 4 days starting from 4 hrs post-parasite inoculation and measured at 24 hrs post-dosing on day 4 by LC/MS analysis; assay type: ADME, organism-based; conditions: dose 30 mg/kg/day, time 4 day
[3] = Plasma concentration in NIH mouse infected with Plasmodium chabaudi ASS at 30 mg/kg, po qd for 4 days starting from 4 hrs post-parasite inoculation and measured at 6 hrs post-dosing on day 4 by LC/MS analysis; assay type: ADME, organism-based; conditions: dose 30 mg/kg/day, time 4 day
[4] = Plasma concentration in NIH mouse infected with Plasmodium chabaudi ASS at 30 mg/kg, po qd for 4 days starting from 4 hrs post-parasite inoculation and measured at 1 hr post-dosing on day 4 by LC/MS analysis; assay type: ADME, organism-based; conditions: dose 30 mg/kg/day, time 4 day
[5] = Plasma concentration in NIH mouse infected with Plasmodium chabaudi ASS at 3 mg/kg, po qd for 4 days starting from 4 hrs post-parasite inoculation and measured at 24 hrs post-dosing on day 4 by LC/MS analysis; assay type: ADME, organism-based; conditions: dose 3 mg/kg/day, time 4 day
[6] = Plasma concentration in NIH mouse infected with Plasmodium chabaudi ASS at 3 mg/kg, po qd for 4 days starting from 4 hrs post-parasite inoculation and measured at 6 hrs post-dosing on day 4 by LC/MS analysis; assay type: ADME, organism-based; conditions: dose 3 mg/kg/day, time 4 day
[7] = Plasma concentration in NIH mouse infected with Plasmodium chabaudi ASS at 3 mg/kg, po qd for 4 days starting from 4 hrs post-parasite inoculation and measured at 1 hr post-dosing on day 4 by LC/MS analysis; assay type: ADME, organism-based; conditions: dose 3 mg/kg/day, time 4 day
[8] = Plasma concentration in NIH mouse infected with Plasmodium chabaudi ASS at 10 mg/kg, po qd for 4 days starting from 4 hrs post-parasite inoculation and measured at 24 hrs post-dosing on day 4 by LC/MS analysis; assay type: ADME, organism-based; conditions: dose 10 mg/kg/day, time 4 day
[9] = Plasma concentration in NIH mouse infected with Plasmodium chabaudi ASS at 10 mg/kg, po qd for 4 days starting from 4 hrs post-parasite inoculation and measured at 6 hrs post-dosing on day 4 by LC/MS analysis; assay type: ADME, organism-based; conditions: dose 10 mg/kg/day, time 4 day
[10] = Plasma concentration in NIH mouse infected with Plasmodium chabaudi ASS at 10 mg/kg, po qd for 4 days starting from 4 hrs post-parasite inoculation and measured at 1 hr post-dosing on day 4 by LC/MS analysis; assay type: ADME, organism-based; conditions: dose 10 mg/kg/day, time 4 day
Plasmodium chabaudi [11] = experiment: Antimalarial activity against Plasmodium chabaudi ASS infected in NIH mouse assessed as inhibition of parasitemia at 30 mg/kg, po qd for 4 days starting from 4 hrs post-parasite inoculation and measured at 24 hrs after last-drug treatment by Peter's 4-day suppressive test relative to control; assay type: functional; conditions: 96 h
HepG2 [12] = experiment: Cytotoxicity against human HepG2 cells assessed as cell viability at 50 uM incubated for 72 hrs by PrestoBlue cell viability reagent based assay; conditions: hepg2, 72 h
[13] = Apparent volume of distribution in KM mouse at 2 mg/kg, iv administered as cassette dosing measured up to 24 hrs by LC/MS analysis; assay type: ADME, organism-based; conditions: in vivo, read-out: Vz
[14] = Half life in KM mouse at 2 mg/kg, iv administered as cassette dosing measured up to 24 hrs by LC/MS analysis; assay type: ADME, organism-based; conditions: in vivo
Cytochrome P450 2C19 = Cytochrome P450 2C19 (Homo sapiens, UniProt P33261); experiment: Inhibition of recombinant human CYP2C19 expressed in baculovirus infected insect cells using s-mephenytoin as substrate incubated for 30 mins in presence of NADPH-regenerating system by fluorescence based assay; assay type: ADME
[15] = Apparent clearance in KM mouse at 2 mg/kg, iv administered as cassette dosing measured up to 24 hrs by LC/MS analysis; assay type: ADME, organism-based; conditions: in vivo
Cytochrome P450 2C9 = Cytochrome P450 2C9 (Homo sapiens, UniProt P11712); experiment: Inhibition of recombinant human CYP2C9 expressed in baculovirus infected insect cells using tolbutamide as substrate incubated for 30 mins in presence of NADPH-regenerating system by fluorescence based assay; assay type: ADME
Cytochrome P450 2D6 = Cytochrome P450 2D6 (Homo sapiens, UniProt P10635); experiment: Inhibition of recombinant human CYP2D6 expressed in baculovirus infected insect cells using dextromethorphan as substrate incubated for 30 mins in presence of NADPH-regenerating system by fluorescence based assay; assay type: ADME
Cytochrome P450 1A2 = target: T1, Cytochrome P450 1A2 (Homo sapiens, UniProt P05177); experiment: Inhibition of recombinant human CYP1A2 expressed in baculovirus infected insect cells using phenacetin as substrate incubated for 30 mins in presence of NADPH-regenerating system by fluorescence based assay; assay type: ADME
T1 sequence (P05177 whole entry): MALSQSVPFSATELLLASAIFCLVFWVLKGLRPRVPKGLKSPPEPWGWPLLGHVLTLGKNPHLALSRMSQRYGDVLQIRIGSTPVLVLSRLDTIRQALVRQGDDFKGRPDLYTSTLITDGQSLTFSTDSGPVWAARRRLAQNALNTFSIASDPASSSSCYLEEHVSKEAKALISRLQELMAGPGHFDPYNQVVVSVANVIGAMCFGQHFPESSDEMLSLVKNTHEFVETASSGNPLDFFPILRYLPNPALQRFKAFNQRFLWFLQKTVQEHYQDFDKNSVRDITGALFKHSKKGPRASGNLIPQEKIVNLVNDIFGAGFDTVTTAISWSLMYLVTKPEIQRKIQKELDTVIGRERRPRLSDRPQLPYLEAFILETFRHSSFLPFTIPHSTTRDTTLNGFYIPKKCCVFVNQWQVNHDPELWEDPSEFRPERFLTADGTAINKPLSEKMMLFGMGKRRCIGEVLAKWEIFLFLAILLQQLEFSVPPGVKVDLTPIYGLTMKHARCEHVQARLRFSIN

Cytochrome P450 3A4 = Cytochrome P450 3A4 (Homo sapiens, UniProt P08684); experiment: Inhibition of recombinant human CYP3A4 expressed in baculovirus infected insect cells using midazolam as substrate incubated for 30 mins in presence of NADPH-regenerating system by fluorescence based assay; assay type: ADME
[16] = target: Beta-secretase 1 (Homo sapiens) (UniProt P56817); experiment: Inhibition of recombinant human BACE1 using Mca-SEVNLDAEFRK(Dnp)RR-NH2 fluorogenic peptide as substrate incubated for 60 mis by fluorescence based assay; conditions: time 60.0 min
Plasmodium falciparum [17] = experiment: Inhibition of Plasmodium falciparum plasmepsin 4 using PM-2 peptide substrate incubated for 60 mis by fluorescence based assay; conditions: time 60.0 min
[18] = target: Plasmepsin II (Plasmodium falciparum) (UniProt P46925); experiment: Inhibition of Plasmodium falciparum plasmepsin 2 using PM-2 peptide substrate incubated for 60 mis by fluorescence based assay; conditions: time 60.0 min
Plasmodium falciparum [19] = experiment: Antimalarial activity against CQ-sensitive Plasmodium falciparum 3D7 incubated for 72 hrs by SYBR Green-1 dye based fluorescence assay; assay type: functional, organism-based; conditions: Plasmodium falciparum, 3D7, 72 h
Plasmodium falciparum [20] = experiment: Antimalarial activity against multidrug resistant Plasmodium falciparum Dd2 incubated for 72 hrs by SYBR Green-1 dye based fluorescence assay; assay type: functional, organism-based; conditions: Dd2, 72 h
Plasmodium chabaudi [21] = experiment: Antimalarial activity against Plasmodium chabaudi ASS infected in NIH mouse assessed as inhibition of parasitemia at 10 mg/kg, po qd for 4 days starting from 4 hrs post-parasite inoculation and measured at 24 hrs after last-drug treatment by Peter's 4-day suppressive test relative to control; assay type: functional; conditions: 96 h
Plasmodium chabaudi [22] = experiment: Antimalarial activity against Plasmodium chabaudi ASS infected in NIH mouse assessed as inhibition of parasitemia at 3 mg/kg, po qd for 4 days starting from 4 hrs post-parasite inoculation and measured at 24 hrs after last-drug treatment by Peter's 4-day suppressive test relative to control; assay type: functional; conditions: 96 h
HepG2 [23] = experiment: Cytotoxicity against human HepG2 cells assessed as cell viability at 5 uM incubated for 72 hrs by PrestoBlue cell viability reagent based assay; conditions: hepg2, 72 h
[24] = Ratio of IC50 for antimalarial activity against CQ-sensitive Plasmodium falciparum 3D7 incubated for 72 hrs by SYBR Green-1 dye based fluorescence assay to Plasma concentration in NIH mouse infected with Plasmodium chabaudi ASS at 10 mg/kg, po qd for 4 days starting from 4 hrs post-parasite inoculation and measured at 24 hrs post-dosing on day 4 by LC/MS analysis
hERG = experiment: Selectivity ratio of IC50 for human ERG incubated for 2 hrs by fluorescence polarization assay to IC50 for CQ-sensitive Plasmodium falciparum 3D7 incubated for 72 hrs by SYBR Green-1 dye based fluorescence assay; assay type: toxicity; conditions: read-out: Ratio IC50
[25] = target: Voltage-gated inwardly rectifying potassium channel KCNH2 (Homo sapiens, UniProt Q12809); experiment: Displacement of Tracer Red from human ERG incubated for 2 hrs by fluorescence polarization assay
Voltage-gated inwardly rectifying potassium channel KCNH2, sequence (Q12809 whole entry): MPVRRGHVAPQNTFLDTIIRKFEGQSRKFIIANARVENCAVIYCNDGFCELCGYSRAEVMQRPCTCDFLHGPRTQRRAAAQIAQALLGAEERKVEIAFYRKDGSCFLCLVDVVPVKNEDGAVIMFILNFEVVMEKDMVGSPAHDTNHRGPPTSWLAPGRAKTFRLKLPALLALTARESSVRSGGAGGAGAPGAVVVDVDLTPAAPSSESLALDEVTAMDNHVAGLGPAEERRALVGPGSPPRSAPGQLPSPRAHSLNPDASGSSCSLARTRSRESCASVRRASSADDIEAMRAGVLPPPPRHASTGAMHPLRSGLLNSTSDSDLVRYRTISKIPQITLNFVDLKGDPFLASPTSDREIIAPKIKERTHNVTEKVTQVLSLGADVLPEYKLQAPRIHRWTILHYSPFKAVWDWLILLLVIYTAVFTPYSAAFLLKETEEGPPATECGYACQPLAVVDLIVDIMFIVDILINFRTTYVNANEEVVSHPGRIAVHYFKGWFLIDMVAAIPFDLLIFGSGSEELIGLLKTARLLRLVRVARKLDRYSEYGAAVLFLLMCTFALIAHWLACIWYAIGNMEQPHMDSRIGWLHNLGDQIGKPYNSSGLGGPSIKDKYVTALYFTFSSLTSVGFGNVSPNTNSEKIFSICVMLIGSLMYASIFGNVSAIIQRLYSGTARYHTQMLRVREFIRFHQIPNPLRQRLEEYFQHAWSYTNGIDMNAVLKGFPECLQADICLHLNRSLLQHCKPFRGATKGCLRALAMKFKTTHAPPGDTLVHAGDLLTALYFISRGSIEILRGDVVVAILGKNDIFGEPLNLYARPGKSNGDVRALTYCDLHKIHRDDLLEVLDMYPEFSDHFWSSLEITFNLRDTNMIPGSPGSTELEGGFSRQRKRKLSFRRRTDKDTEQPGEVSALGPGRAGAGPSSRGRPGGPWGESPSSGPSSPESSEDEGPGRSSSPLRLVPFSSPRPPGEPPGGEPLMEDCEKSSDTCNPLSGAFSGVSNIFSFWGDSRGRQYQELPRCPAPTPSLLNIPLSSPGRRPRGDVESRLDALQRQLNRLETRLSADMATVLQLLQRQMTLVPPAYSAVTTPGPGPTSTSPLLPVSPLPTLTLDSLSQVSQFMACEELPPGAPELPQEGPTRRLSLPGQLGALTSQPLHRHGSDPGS

Cytochrome P450 2C19, sequence (P33261 whole entry): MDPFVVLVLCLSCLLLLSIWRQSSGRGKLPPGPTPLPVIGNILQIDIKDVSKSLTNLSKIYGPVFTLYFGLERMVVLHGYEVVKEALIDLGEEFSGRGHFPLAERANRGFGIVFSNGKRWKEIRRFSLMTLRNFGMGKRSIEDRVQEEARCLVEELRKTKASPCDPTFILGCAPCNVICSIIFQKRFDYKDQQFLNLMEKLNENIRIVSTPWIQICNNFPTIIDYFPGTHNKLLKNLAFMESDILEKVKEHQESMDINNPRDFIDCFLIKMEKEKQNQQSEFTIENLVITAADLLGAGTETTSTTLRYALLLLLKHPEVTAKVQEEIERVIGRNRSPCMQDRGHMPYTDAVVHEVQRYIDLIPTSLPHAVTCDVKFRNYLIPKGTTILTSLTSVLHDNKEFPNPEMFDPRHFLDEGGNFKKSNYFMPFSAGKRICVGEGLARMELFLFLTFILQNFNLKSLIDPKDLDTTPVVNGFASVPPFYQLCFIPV
Cytochrome P450 2C9, sequence (P11712 whole entry): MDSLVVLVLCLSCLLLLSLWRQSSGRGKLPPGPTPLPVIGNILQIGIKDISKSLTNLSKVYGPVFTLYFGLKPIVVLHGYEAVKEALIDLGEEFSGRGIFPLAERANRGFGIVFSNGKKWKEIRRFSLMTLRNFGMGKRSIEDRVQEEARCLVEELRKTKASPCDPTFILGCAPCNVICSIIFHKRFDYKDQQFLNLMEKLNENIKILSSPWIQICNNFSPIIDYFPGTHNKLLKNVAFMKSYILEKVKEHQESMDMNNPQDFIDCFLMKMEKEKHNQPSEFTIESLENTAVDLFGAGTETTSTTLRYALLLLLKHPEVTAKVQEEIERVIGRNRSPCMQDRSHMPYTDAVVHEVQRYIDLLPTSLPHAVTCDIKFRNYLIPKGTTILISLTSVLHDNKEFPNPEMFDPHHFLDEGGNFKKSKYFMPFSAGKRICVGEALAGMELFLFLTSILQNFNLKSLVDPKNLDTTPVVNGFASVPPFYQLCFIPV
Cytochrome P450 2D6, sequence (P10635 whole entry): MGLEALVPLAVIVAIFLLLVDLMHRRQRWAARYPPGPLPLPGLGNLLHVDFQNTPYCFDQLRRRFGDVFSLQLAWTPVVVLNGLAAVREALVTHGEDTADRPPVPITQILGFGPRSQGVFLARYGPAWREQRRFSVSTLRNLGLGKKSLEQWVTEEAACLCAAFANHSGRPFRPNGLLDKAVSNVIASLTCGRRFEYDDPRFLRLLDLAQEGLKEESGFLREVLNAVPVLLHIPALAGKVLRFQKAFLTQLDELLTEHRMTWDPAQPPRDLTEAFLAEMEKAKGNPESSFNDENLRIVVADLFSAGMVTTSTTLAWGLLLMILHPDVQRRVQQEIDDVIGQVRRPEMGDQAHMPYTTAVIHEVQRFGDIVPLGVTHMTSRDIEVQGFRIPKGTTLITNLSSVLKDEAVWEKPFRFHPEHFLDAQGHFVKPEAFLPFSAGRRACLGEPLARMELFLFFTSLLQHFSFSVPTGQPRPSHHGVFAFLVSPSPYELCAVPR
Cytochrome P450 3A4, sequence (P08684 whole entry): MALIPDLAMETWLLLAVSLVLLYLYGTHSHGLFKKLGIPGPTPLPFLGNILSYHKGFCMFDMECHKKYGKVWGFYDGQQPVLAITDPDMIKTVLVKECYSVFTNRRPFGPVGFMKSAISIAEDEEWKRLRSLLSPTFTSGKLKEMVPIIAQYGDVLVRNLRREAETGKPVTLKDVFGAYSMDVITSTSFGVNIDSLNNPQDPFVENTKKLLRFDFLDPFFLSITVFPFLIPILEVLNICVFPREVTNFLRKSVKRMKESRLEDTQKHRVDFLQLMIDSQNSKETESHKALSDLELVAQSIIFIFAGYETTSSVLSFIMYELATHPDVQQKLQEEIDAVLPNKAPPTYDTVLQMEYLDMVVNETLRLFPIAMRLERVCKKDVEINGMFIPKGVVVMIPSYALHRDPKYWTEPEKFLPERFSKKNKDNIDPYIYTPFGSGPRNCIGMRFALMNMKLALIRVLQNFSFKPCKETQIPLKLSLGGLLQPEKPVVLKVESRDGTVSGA
Plasmepsin II (Plasmodium falciparum), sequence (P46925 125-453 limits assumed): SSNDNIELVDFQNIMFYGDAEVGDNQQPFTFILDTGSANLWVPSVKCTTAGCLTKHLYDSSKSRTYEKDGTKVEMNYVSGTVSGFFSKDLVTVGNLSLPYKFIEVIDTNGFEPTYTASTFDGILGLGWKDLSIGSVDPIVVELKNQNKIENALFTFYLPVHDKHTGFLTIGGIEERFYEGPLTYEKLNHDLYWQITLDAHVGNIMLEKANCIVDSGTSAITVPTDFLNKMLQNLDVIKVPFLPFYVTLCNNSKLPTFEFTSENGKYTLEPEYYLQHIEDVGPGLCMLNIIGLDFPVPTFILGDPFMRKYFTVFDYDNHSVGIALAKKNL
Beta-secretase 1 (Homo sapiens), sequence (P56817 whole entry): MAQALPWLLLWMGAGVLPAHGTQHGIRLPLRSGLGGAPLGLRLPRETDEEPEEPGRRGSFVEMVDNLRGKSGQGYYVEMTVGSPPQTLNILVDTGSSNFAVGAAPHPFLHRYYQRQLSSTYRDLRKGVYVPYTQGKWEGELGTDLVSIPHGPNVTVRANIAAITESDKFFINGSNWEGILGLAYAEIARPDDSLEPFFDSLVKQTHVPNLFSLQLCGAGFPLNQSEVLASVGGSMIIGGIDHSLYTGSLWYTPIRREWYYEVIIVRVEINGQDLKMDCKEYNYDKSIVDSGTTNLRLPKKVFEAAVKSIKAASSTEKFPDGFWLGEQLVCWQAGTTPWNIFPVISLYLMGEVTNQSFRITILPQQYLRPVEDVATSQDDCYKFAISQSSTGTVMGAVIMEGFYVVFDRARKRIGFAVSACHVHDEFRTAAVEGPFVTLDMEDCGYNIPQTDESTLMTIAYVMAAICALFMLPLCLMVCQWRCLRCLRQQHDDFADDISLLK

| SMILES | concentration at 96 h [8] | concentration at 96 h [9] | concentration at 96 h [10] | Vd [13] | half-life [14] | IC50 (Cytochrome P450 2C19) | clearance [15] | IC50 (Cytochrome P450 2C9) | IC50 (Cytochrome P450 2D6) | IC50 (Cytochrome P450 1A2) | IC50 (Cytochrome P450 3A4) | inhibition [16] | inhibition (Plasmodium falciparum [17]) | inhibition [18] | IC50 (Plasmodium falciparum [19]) | IC50 (Plasmodium falciparum [20]) | inhibition in vivo at 10 mg/kg/day (Plasmodium chabaudi [21]) | Activity (HepG2 [23]) | other results |
| --- | --- | --- | --- | --- | --- | --- | --- | --- | --- | --- | --- | --- | --- | --- | --- | --- | --- | --- | --- |
| CN(C)c1ccc(CC(=O)N[C@@H]2CNC[C@H]2c2ccc(C(C)(F)F)cc2)cc1 | 1.7 nM | 48.9 nM | 389 nM | 2.1 L/kg | 2.7 h | 49700 nM | 13.8 mL/min/kg | > 100000 nM | 40600 nM | > 100000 nM | 2500 nM | inactive | inactive | inactive | 51 nM | 53 nM | 94.1% | Non-Toxic | ED90 (Plasmodium chabaudi [1]): < 10 mg/kg/day; ED99 (Plasmodium chabaudi [1]): 30 mg/kg/day; concentration at 96 h [2]: 28.5 nM; concentration at 96 h [3]: 1150 nM; concentration at 96 h [4]: 1310 nM; concentration at 96 h [5]: 6.6 nM; concentration at 96 h [6]: 34.1 nM; concentration at 96 h [7]: 114 nM; inhibition in vivo at 30 mg/kg/day (Plasmodium chabaudi [11]): 99.9%; Activity (HepG2 [12]): Non-Toxic; inhibition in vivo at 3 mg/kg/day (Plasmodium chabaudi [22]): 34% |
| CN(C)c1ccc(CC(=O)N[C@@H]2CNC[C@H]2c2ccc(S(F)(F)(F)(F)F)cc2)cc1 | 14.9 nM | 119 nM | 129 nM | 6.2 L/kg | 7 h | 29400 nM | 10.5 mL/min/kg | 36600 nM | 90000 nM | > 100000 nM | 159 nM | inactive | inactive | inactive | 91 nM | 89 nM | 65.3% | Non-Toxic | Ratio [24]: 6; selectivity ratio at 2 h (hERG): 28; IC50 [25]: 2570 nM |
